These results are taken from US20240239861A1, “GLUCAGON-RECEPTOR SELECTIVE POLYPEPTIDES AND METHODS OF USE THEREOF” (i2O Therapeutics, Inc., priority 2016, published 2024).

One series concerns the target human GCGR (Homo sapiens, UniProt P47871). Briefly: Peptide-receptor mediated cAMP accumulation (LANCE Ultra cAMP) in CHO-K1 cells transfected with human GCGR. It is filed as cell-based.
In a further series the target is human GLP-1R (Homo sapiens, UniProt P43220). Briefly: Peptide-receptor mediated cAMP accumulation (LANCE Ultra cAMP) in CHO-K1 cells transfected with human GLP-1R. It is filed as cell-based.
human GLP-1R, sequence (P43220 24-463): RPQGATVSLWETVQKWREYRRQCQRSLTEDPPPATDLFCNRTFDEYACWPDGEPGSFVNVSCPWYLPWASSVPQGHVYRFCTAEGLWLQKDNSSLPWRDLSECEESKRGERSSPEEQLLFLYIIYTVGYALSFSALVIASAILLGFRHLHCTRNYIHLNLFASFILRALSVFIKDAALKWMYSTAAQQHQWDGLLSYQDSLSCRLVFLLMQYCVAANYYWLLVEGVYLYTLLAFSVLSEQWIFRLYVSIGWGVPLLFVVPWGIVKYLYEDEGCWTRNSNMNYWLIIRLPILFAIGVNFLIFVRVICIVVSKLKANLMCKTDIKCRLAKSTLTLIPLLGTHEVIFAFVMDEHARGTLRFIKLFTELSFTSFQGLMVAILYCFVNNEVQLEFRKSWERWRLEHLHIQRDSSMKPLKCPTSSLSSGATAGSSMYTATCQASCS
The next series addresses T1, hGIPR (Homo sapiens, UniProt P48546).
T1 sequence (P48546 22-466): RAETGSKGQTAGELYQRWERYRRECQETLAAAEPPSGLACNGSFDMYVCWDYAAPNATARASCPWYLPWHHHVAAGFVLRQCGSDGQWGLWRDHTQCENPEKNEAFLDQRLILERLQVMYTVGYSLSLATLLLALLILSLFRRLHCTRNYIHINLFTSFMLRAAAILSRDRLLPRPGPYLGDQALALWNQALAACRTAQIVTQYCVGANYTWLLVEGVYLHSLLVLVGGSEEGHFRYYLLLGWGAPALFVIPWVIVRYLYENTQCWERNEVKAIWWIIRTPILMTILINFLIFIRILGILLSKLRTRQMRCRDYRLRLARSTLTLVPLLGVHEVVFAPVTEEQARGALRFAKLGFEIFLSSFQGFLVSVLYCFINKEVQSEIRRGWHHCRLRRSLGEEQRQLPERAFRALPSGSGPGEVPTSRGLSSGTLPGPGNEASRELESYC
As to the kind of experiment: Human in vitro potency (pEC50) at hGIPR. It is filed as cell-based.

A short description of series [1]: Solubility in water or saline at room temperature, visual inspection. The class given is physicochemical. The source says:
Samples were visually inspected for clarity of the sample, any appearance of turbidity or haziness.

Series [2] is described as follows: Stability in water or saline at 37° C. and room temperature, 30 days, LC/MS and HPLC purity. The class given is physicochemical. The source says: Samples were withdrawn at a regular interval for 30 days and analyzed by LC/MS and HPLC for determination of purity and mass of the degradation product.
A short description of series [3]: Steady state plasma concentrations of glucagon analogs given subcutaneously by osmotic minipump. The class given is in vivo, rat.
A short description of series [4]: Body weight change in diet-induced obese rats over 27 days, Compound A1 with or without exenatide. It is filed as in vivo, rat.
Series [5] can be described thus: Clearance following intravenous infusion, acylated peptides (1-hour infusion, 0.033 mg/kg). The settings on record: rat, in vivo, Table 8, male rats, unit inferred.
The nature of series [6]: 3-hour subcutaneous infusion pharmacokinetics. Conditions: male, rat, in vivo.
Protocol: Peptides were formulated in sterile saline and administered as a 3-hour subcutaneous infusion to non-fasted male Wistar Han or Sprague-Dawley rats (n=3 per group) at a final dose of 0.3 or 0.1 mg/kg via a cannula placed into the subcutaneous space between the scapulae. […] Plasma was prepared by centrifugation and stored at −80° C. until analysis.
(§1) Protein Precipitation: All 96-well plates were coated with a blocking agent to mitigate non-specific binding of peptides. Plasma samples (75 uL) were added to a 96-well plate containing 200 uL of 2:1 ethanol:acetonitrile containing 0.1% TFA and mixed well via aspiration. Plates were capped, vortex-mixed and centrifuged. Supernatants (215 uL) were transferred to a clean 96-well plate, evaporated to dryness under nitrogen flow and then reconstituted in 75 μL of 20% acetonitrile in water containing 0.10% formic acid.
Solid-Phase Extraction: Samples were diluted 3-fold with 5% NH4OH (aq) and loaded onto an Oasis MAX microElution plate (Waters Corp, Milford, MA) that had been pre-conditioned with 200 uL each of methanol and 5% NH4OH (aq). The plate was washed with 200 uL 5% NH4OH (aq), followed by 200 uL 20% acetonitrile in water. […]
All calibration standards were prepared in control rat plasma containing K2EDTA and protease inhibitor cocktail. […] Peptides were quantified my monitoring one or more product ions produced from a multiply charged parent ion.
The nature of series [7]: Clearance at intravenous infusion rate of 10 mcg/kg/hr. The settings on record: for clearance: rat, in vivo, 10 mcg/kg/hr.
A short description of series [8]: 3-hour intravenous infusion pharmacokinetics, peptide clearance (CL). Conditions: male, rat, in vivo.
Protocol: Peptides were formulated in sterile saline and administered as a 3-hour intravenous infusion to non-fasted male Wistar Han or Sprague-Dawley rats (n=3 per group) via jugular vein cannula at a final dose of 0.3 or 0.1 mg/kg. […] Plasma was prepared by centrifugation and stored at −80° C. until analysis.
as §1
Solid-Phase Extraction: Samples were diluted 3-fold with 5% NH4OH (aq) and loaded onto an Oasis MAX microElution plate (Waters Corp, Milford, MA) that had been pre-conditioned with 200 uL each of methanol and 5% NH4OH (aq). The plate was washed with 200 uL 5% NH4OH (aq), followed by 200 uL 20% acetonitrile in water. […] Samples were reconstituted in 80 uL 0.1% formic acid in water.
All calibration standards were prepared in control rat plasma containing K2EDTA and protease inhibitor cocktail. […] Samples were injected onto a 2.1×50 mm reverse phase C18 analytical column, typically a Waters ACQUITY UPLC™ HSS T3, 1.8 μm (Waters Corporation, Milford, MA) or similar. […] Typical flow rates were 600 L/min. The column temperature was held constant at 40 or 45° C. Peptides were quantified my monitoring one or more product ions produced from a multiply charged parent ion.
Series [9] is described as follows: Body weight change in DIO Long Evans rats after 13 days continuous dosing by osmotic pump. The settings on record: for weight loss compared to vehicle control after 13 days: DIO LE rats, single agent; for ED50 of weight loss: DIO rats; for common maximal weight loss response: over 13 days, fits constrained to share it (FIG. 9).
Protocol: Rats were 15-17 weeks old at the start of the study. The rats were housed 1 per cage and given ad libitum access to high fat diet (Harlan TD.95217, 4.3 kcal/g) and water, maintained on a 12 hr light/dark cycle from 5:00 AM to 5:00 PM at 21° C. and 50% relative humidity and allowed to acclimate for at least 10 days prior to the surgeries. Baseline fat mass and non-fat mass measurements were taken 3 days before the start of peptide infusion using a QMR instrument (Echo Medical Systems, Houston, TX). Body weight measurements were taken 2 times/week starting three days before the surgery. Rats were randomized according to their percent body fat mass and/or body weight into the various treatment groups (n=4-6 rats/group). […] On the day of surgery, rats were anesthetized under isoflurane and the dorsal skin surface was shaved and cleansed. Rats were injected SC with Flunexin (2.5 mg/kg). A 1-2 cm surgical incision was made between the scapulae. Using blunt dissection, a 2-3 cm subcutaneous tunnel was created into which the sterile, filled, mini-osmotic pump was introduced. The skin opening was closed with a skin staple. Each rat was implanted with either one or two osmotic pumps containing vehicle or peptide according to their treatment group. All the data are presented as mean±SEM. The data were analyzed in Excel and/or Prism (GraphPad Software, Inc., La Jolla, CA) using one-way ANOVA to compare each group to the appropriate control group.
The conditions of series [10]: rat, in vivo.
The next series is described as follows: in vivo. The settings on record: rat, iv.
[11] abbreviates: hGLP1 pEC50 (cAMP mean (n = 3): 11 point curve starting at 1 nM, Table 3).
Setting [12] is: hGLP1 pEC50 (cAMP) mean (n = 9): 11 point curve starting at 500 uM, Table 2A.
Setting [13] is: 13 days infusion, fits sharing vehicle response and common maximum (FIG. 9).

Molecules are shown by their SMILES. “Also recorded” adds a separate entry of the source. Where two headings read alike, the source gives them in different places. Where a SMILES comes first, the peptide text is derived from it. [ ]: non-standard residue; d: D form. Aib = CC(C)(N)C(=O)O

human GCGR, sequence (P47871 26-477): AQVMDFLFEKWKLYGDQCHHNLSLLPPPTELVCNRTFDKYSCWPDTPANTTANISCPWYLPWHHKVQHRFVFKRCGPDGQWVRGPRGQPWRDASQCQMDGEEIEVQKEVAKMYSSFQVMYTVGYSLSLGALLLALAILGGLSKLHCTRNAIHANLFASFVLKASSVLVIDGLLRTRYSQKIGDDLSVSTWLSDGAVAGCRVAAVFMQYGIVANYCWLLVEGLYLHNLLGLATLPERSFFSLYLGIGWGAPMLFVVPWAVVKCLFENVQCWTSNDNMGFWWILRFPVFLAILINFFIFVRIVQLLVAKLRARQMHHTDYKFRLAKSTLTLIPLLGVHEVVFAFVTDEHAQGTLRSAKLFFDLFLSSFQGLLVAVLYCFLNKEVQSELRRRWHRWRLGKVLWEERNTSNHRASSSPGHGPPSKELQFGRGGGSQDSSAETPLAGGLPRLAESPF

With `CC(C)C[C@H](NC(=O)[C@H](Cc1ccc(O)cc1)NC(=O)[C@H](CCCCN)NC(=O)[C@H](CO)NC(=O)[C@H](Cc1ccc(O)cc1)NC(=O)[C@H](CC(=O)O)NC(=O)[C@H](CO)NC(=O)[C@@H](NC(=O)[C@H](Cc1ccccc1)NC(=O)[C@@H](NC(=O)CNC(=O)[C@H](Cc1c[nH]cn1)NC(=O)[C@H](CO)NC(=O)[C@@H](N)Cc1ccc(O)cc1)[C@@H](C)O)[C@@H](C)O)C(=O)N[C@@H](CC(=O)O)C(=O)NC(C)(C)C(=O)N[C@@H](CCCCN)C(=O)N[C@@H](Cc1ccc(O)cc1)C(=O)N[C@@H](C)C(=O)N[C@@H](CCC(N)=O)C(=O)N[C@@H](CCC(=O)O)C(=O)N[C@@H](Cc1ccccc1)C(=O)N[C@H](C(=O)NC(C)(C)C(=O)N[C@@H](Cc1c[nH]c2ccccc12)C(=O)N[C@@H](CC(C)C)C(=O)N[C@@H](CCC(=O)O)C(=O)N[C@@H](CC(=O)O)C(=O)N[C@@H](CCC(=O)O)C(=O)N1CCC[C@H]1C(=O)N[C@@H](CO)C(=O)N[C@@H](CO)C(=O)NCC(=O)N[C@@H](C)C(=O)N1CCC[C@H]1C(=O)N1CCC[C@H]1C(=O)N1CCC[C@H]1C(=O)N[C@@H](CO)C(=O)O)C(C)C` [Compound A1] (H-YSHGTFTSDYSKYLD[Aib]KYAQEFV[Aib]WLEDEPSSGAPPPS-OH; N-terminus assumed), the EC50 was 25.1 pM at human GCGR; over 1 µM on human GLP-1R (GLP-1R pEC50, Table 7, GLP-1R); 6.31 µM at human GLP-1R (Human in vitro Potency (pEC50) hGLP-1R, Table 6); 6.31 µM at human GLP-1R (setting [11]); 6.31 µM at human GLP-1R (setting [12]); over 10 µM at hGIPR. Also, the “activation profile at the human glucagon receptor (GCGR)” value at human GCGR (FIG. 1A) was “nearly equipotent on GCGR”. Also, on human GLP-1R (FIG. 1B), the “activation profile at the human GLP-1 receptor (GLP-1R)” value was “inactive on GLP-1R”. Further, in [1] (Table 3, room temperature, read-out: Solubility in water), the solubility was over 200 mg/mL. Also, the “Physiochemical Properties Solubility” value in series [1] (Table 6, unit not given) is over 200. In addition, the “Stability 1 mg/ml in water at 37 degC” value in series [2] (Table 3, % printed only in cells of A1-A6) was over 71%. For the same compound, the “Physiochemical Properties Stability” value in series [2] (Table 6) is recorded as over 95%. Besides, the mode of clearance result is listed as “consistent with being via glomerular filtration; also recorded: cleared mainly by glomerular filtration” in series [3] (FIG. 6, steady state plasma concentration vs inulin/GFR) and “cleared from plasma via glomerular filtration” in series [7] (FIG. 7, Table 5 values close to GFR). Also, the subcutaneous bioavailability result in [3] (sc osmotic minipump, rat) is “high”. The “interaction of the combination with exenatide on weight loss” value in series [4] (27 days, Compound A1 24 and 50 mcg/kg/day with exenatide 10 mcg/kg/day) is given as “supra-additive (synergistic) effect”. The “maximal weight loss response, combination with exenatide” value in series [4] (27 days, Compound A1 with exenatide 10 mcg/kg/day) is on record as about 47%. Besides, the “increase in body weight over 27 days” value in [4] (DIO rats, Compound A1 alone 7.5 mcg/kg/day) was about 4%; in series [4] (DIO rats, Compound A1 alone 24 mcg/kg/day) it was about 4%. Besides, in series [4] (DIO rats, Compound A1 alone, highest infusion rate (50 mcg/kg/day)), the “decrease in body weight over 27 days” value turned out to be 16.8%. For the same compound, the clearance was 11.5 mL/min/kg in series [5] (read-out: CL (IV/SubQ)); 11.5 mL/min/kg in [7] (Rat PK Cl, Table 6, unit inferred); 10.6 mL/min/kg in series [7] (iv, CL mL/min/kg, Table 5, intravenous infusion rate 10 mcg/kg/hr); 11.5 mL/min/kg in series [8]. Further, in series [5] (read-out: T ½ (converted)), the half-life is 49.8 min. The compound also came in with a bioavailability in [6] of 74%. The “clearance compared with exenatide and glucagon” value in series [7] (FIG. 7) is “less than that of exenatide and glucagon”. For the same compound, the “weight loss compared to vehicle control after 13 days” value is 5.6% in [9] (0.01 mg/kg/day), 3.5% in [9] (0.03 mg/kg/day), 10% in [9] (0.1 mg/kg/day) and 22.6% in [9] (0.3 mg/kg/day). For the same compound, the “ED50 of weight loss” value in series [9] (setting [13]) was determined as 51 µg/kg/day; in series [9] (13 days sc minipump, 4-parameter sigmoid fit of each agent (FIG. 8; Table 6 prints no unit)) it was 65.7 µg/kg/day. For the same compound, in [9] (Table 6, rat in vivo), the “% Weight loss Single” value stood at 26%. In addition, the “in vivo potency compared with exenatide” value in [9] (administered alone) is given as “almost as potent in vivo as exenatide”. Also, the “maximal weight loss relative to exenatide” value in [9] (greater, administered alone) was found to be 2.3 fold. Besides, in series [9], the “common maximal weight loss response” value worked out at 27.2%.
Take `CC(C)C[C@H](NC(=O)[C@H](Cc1ccc(O)cc1)NC(=O)[C@H](CCCCN)NC(=O)[C@H](CO)NC(=O)[C@H](Cc1ccc(O)cc1)NC(=O)[C@H](CC(=O)O)NC(=O)[C@H](CO)NC(=O)[C@@H](NC(=O)[C@H](Cc1ccccc1)NC(=O)[C@@H](NC(=O)CNC(=O)[C@H](CCC(N)=O)NC(=O)[C@H](CO)NC(=O)[C@@H](N)Cc1ccc(O)cc1)[C@@H](C)O)[C@@H](C)O)C(=O)N[C@@H](CC(=O)O)C(=O)N[C@@H](C)C(=O)N[C@@H](C)C(=O)N[C@@H](CCCNC(=N)N)C(=O)N[C@@H](C)C(=O)N[C@@H](CCC(N)=O)C(=O)N[C@@H](CCC(=O)O)C(=O)N[C@@H](Cc1ccccc1)C(=O)N[C@H](C(=O)N[C@@H](CCCCN)C(=O)N[C@@H](Cc1c[nH]c2ccccc12)C(=O)N[C@@H](CC(C)C)C(=O)N[C@@H](CCC(=O)O)C(=O)N[C@@H](CC(=O)O)C(=O)N[C@@H](CCC(=O)O)C(=O)N1CCC[C@H]1C(=O)N[C@@H](CCCCN)C(=O)N[C@@H](CO)C(=O)N[C@@H](CCCCN)C(=O)N[C@@H](CO)C(=O)N1CCC[C@H]1C(=O)N1CCC[C@H]1C(=O)N1CCC[C@H]1C(=O)N[C@@H](CO)C(N)=O)C(C)C` [Compound A3] (H-YSQGTFTSDYSKYLDAARAQEFVKWLEDEPKSKSPPPS-NH2; N-terminus assumed): the EC50 at human GLP-1R (setting [11]) and at human GLP-1R (setting [12]) was 0.2 µM each time. The solubility in series [1] (Solubility in water mg/ml) is over 200 mg/mL. The “Stability 1 mg/ml in water at 37 degC” value in series [2] is recorded as over 64%. For the same compound, in series [10], the mode of clearance result is given as “cleared from plasma via glomerular filtration”. Moreover, in the series “in vivo”, the clearance came out at 10.7 mL/min/kg. In addition, the “CL” value in “FIGURE 2B” was determined as 12.5 ± 1.6 mL/min/kg. Moreover, in series [9] (setting [13]), the “ED50 of weight loss” value worked out at 535 µg/kg/day. In series [9], the “common maximal weight loss response” value amounted to 27.2%.
